Reference: patent US20160346249A1 (priority 2012, published 2016)

Assay: Single dose 300 mg / 450 mg pharmacokinetic, safety and tolerability study in healthy male and female subjects
Settings: for AUC(0-inf) / AUC(0-t) / Cmax / MRT inf / Tmax / half-life: human, plasma, po; for Percent of Dose in Urine (0-24 hr): Mean (SD)
[1] = single oral 300 mg DOV 21,947 HCl IR, Female, N = 5
[2] = single oral 300 mg DOV 21,947 HCl IR, Male, N = 5
[3] = single oral 300 mg DOV 21,947 HCl IR, mean, N = 10
[4] = single oral 450 mg DOV 21,947 HCl IR, Female, N = 5
[5] = single oral 450 mg DOV 21,947 HCl IR, Male, N = 5

Excerpt: Fourteen subjects, divided equally between males and females, were enrolled in the study and randomized between test article (5/sex) and placebo (2/sex). […] All subjects met the inclusion and exclusion criteria for entry into the study as detailed in the protocol and signed an informed consent form.
The subjects were confined to the clinical study site from Day −1 to the morning of Day 2, when they underwent a brief physical examination, clinical laboratory tests, and a physician visit before they were discharged. On Day 7, they reported to the clinical site again and were confined to the site until the morning of Day 9. At that time, they underwent a complete physical examination, clinical laboratory tests, and a physician's visit before they were discharged from the study. All subjects were fasted overnight on Days −1 and 7 from approximately 22:00 to approximately 4 hours post-dose on Days 1 and 8, at which time they received a standard lunch.
Subjects that received the placebo (2/sex) ingested six identical looking capsules with no drug. […] Capsules on both days were ingested with 240 mL water. […] Samples were collected into lithium heparin-containing Vacutainers® and centrifuged at approximately 3000 rpm to obtain the plasma fraction. The plasma was split into two polypropylene tubes and stored at −20° C. […] The urine volumes were recorded and an aliquot was stored for drug concentration measurements.
Validated LC/MS/MS assays were used for analyses; the assay range for both analytes in plasma and urine were 5.00 to 2000 ng/mL.
Plasma concentration-time data for each subject were analyzed with WinNonlin, version 4.1 (Pharsight Corporation, Mountain View, Calif.) using a non-compartmental model. […] Plasma concentrations listed as not detected (ND) or below the lower limit of quantitation (LLOQ) were set to zero. The values of Cmax and Tmax were the observed values for each subject. AUC0-t was determined using the linear trapezoidal rule whenever the concentration data were increasing and the logarithmic trapezoidal rule any time that the concentration data were decreasing. The apparent λz was calculated as the negative slope of the log-linear terminal portion of the blood concentration-time curve using linear regression. To allow for accurate calculation of λz, a minimum of three observations, selected by WinNonlin, was used. The t½ was calculated as ln 2/λz. AUC0-t was extrapolated to infinity (AUC0-∞) as follows: AUC0-∞=AUC0-t+Clast/λz where Clast is the last quantifiable concentration. The apparent oral clearance (CL/F) was calculated as Dose/AUC0-∞. The apparent oral volume of distribution (Vz/F) was calculated as Dose/λz×AUC0-∞. The mean residence time from time zero to infinity (MRT0-∞) was calculated as AUMC0-∞/AUC0-∞.

Structure (SMILES): Clc1ccc([C@]23CNC[C@H]2C3)cc1Cl [amitifadine, (+)-1-(3,4-dichlorophenyl)-3-azabicyclo[3.1.0]hexane]
- AUC(0-inf) (female, 450 mg): 29900 ng·h/mL
- AUC(0-t) (female, 450 mg): 29500 ng·h/mL
- Cmax (female, 450 mg): 4540 ng/mL
- MRT inf (female, 450 mg): 6.42 h
- Tmax (female, 450 mg): 3 h
- half-life (female, 450 mg, t½ (Harmonic mean), single oral 450 mg DOV 21,947 HCl IR, N = 5): 3.57 h
- half-life (female, 450 mg, t½, single oral 450 mg DOV 21,947 HCl IR, N = 5, arithmetic mean): 3.58 h
- AUC(0-inf) (male, 300 mg): 19000 ng·h/mL
- AUC(0-t) (male, 300 mg): 18600 ng·h/mL
- Cmax (male, 300 mg): 3480 ng/mL
- MRT inf (male, 300 mg): 6.07 h
- Tmax (male, 300 mg): 1.6 h
- half-life (male, 300 mg, t½ (Harmonic mean), single oral 300 mg DOV 21,947 HCl IR, N = 5): 4.31 h
- half-life (male, 300 mg, t½, single oral 300 mg DOV 21,947 HCl IR, N = 5, arithmetic mean): 4.34 h
- AUC(0-inf) (male, 450 mg): 31100 ng·h/mL
- AUC(0-t) (male, 450 mg): 30500 ng·h/mL
- Cmax (male, 450 mg): 5680 ng/mL
- MRT inf (male, 450 mg): 6.35 h
- Tmax (male, 450 mg): 1.85 h
- half-life (male, 450 mg, t½ (Harmonic mean), single oral 450 mg DOV 21,947 HCl IR, N = 5): 4 h
- half-life (male, 450 mg, t½, single oral 450 mg DOV 21,947 HCl IR, N = 5, arithmetic mean): 4.06 h
- CL/F [1]: 13.0 L/h
- λz [1]: 0.169 h⁻¹
- CL/F [2]: 14.2 L/h
- λz [2]: 0.161 h⁻¹
- Percent of Dose in Urine (0-24 hr) (single oral 300 mg DOV 21,947 HCl IR): 0.411 (0.121) Percent of Dose
- Mean Amount in Urine (single oral 300 mg DOV 21,947 HCl IR, Period 0-1 hr): 17.0 µg
- Mean Amount in Urine (single oral 300 mg DOV 21,947 HCl IR, Period 1-2 hr): 115 µg
- Mean Amount in Urine (single oral 300 mg DOV 21,947 HCl IR, Period 2-4 hr): 279 µg
- Mean Amount in Urine (single oral 300 mg DOV 21,947 HCl IR, Period 4-8 hr): 371 µg
- Mean Amount in Urine (single oral 300 mg DOV 21,947 HCl IR, Period 8-12 hr): 137 µg
- Mean Amount in Urine (single oral 300 mg DOV 21,947 HCl IR, Period 12-24 hr): 115 µg
- Mean Amount in Urine (single oral 300 mg DOV 21,947 HCl IR, Total (0-24 hr)): 1064 µg
- CL/F [3]: 13.6 L/h
- λz [3]: 0.165 h⁻¹
- CL/F [4]: 13.7 L/h
- λz [4]: 0.194 h⁻¹
- CL/F [5]: 12.8 L/h
- λz [5]: 0.173 h⁻¹
- Percent of Dose in Urine (0-24 hr) (single oral 450 mg DOV 21,947 HCl IR): 0.299 (0.143) Percent of Dose
- Mean Amount in Urine (single oral 450 mg DOV 21,947 HCl IR, Period 0-1 hr): 9.4 µg
- Mean Amount in Urine (single oral 450 mg DOV 21,947 HCl IR, Period 1-2 hr): 66.3 µg
- Mean Amount in Urine (single oral 450 mg DOV 21,947 HCl IR, Period 2-4 hr): 322 µg
- Mean Amount in Urine (single oral 450 mg DOV 21,947 HCl IR, Period 4-8 hr): 402 µg
- Mean Amount in Urine (single oral 450 mg DOV 21,947 HCl IR, Period 8-12 hr): 195 µg
- Mean Amount in Urine (single oral 450 mg DOV 21,947 HCl IR, Period 12-24 hr): 164 µg
- Mean Amount in Urine (single oral 450 mg DOV 21,947 HCl IR, Total (0-24 hr)): 1159 µg
- λz (single oral 450 mg DOV 21,947 HCl IR, mean, N = 10): 0.184 h⁻¹
